Reference: ChEMBL document CHEMBL4020765, “Synthesis and α-glucosidase inhibition activity of dihydroxy pyrrolidines” (Bioorg Med Chem Lett, 2017)

How the values were obtained:
[1] = Inhibition of alpha glucosidase (unknown origin) using PNPG as substrate preincubated for 15 to 20 mins followed by substrate addition measured after 45 to 60 mins by spectrophotometric method
Homo sapiens [2] = organism: Homo sapiens; assay: Potency index, ratio of miglitol IC50 to compound IC50 for alpha glucosidase (unknown origin)
Homo sapiens [3] = organism: Homo sapiens; assay: Potency index, ratio of voglibose IC50 to compound IC50 for alpha glucosidase (unknown origin)
Homo sapiens [4] = organism: Homo sapiens; assay: Potency index, ratio of acarbose IC50 to compound IC50 for alpha glucosidase (unknown origin)
[5] = Inhibition of alpha glucosidase (unknown origin) using PNPG as substrate preincubated for 10 mins followed by substrate addition measured after 30 mins; design: species or system Homo sapiens

SMILES	IC50 ([1]; read-out: IC50)	further results
O=C(/C=C/c1ccc(C(F)(F)F)cc1)N1C[C@@H](O)[C@@H](O)C1	638 µM	–
O=C(CCc1ccc(C(F)(F)F)cc1)Nc1ccc(CCC(=O)N2C[C@H](O)[C@@H](O)C2)cc1	–	IC50 [1]: Not Active
O=C(CCc1ccc([N+](=O)[O-])cc1)N1C[C@H](O)[C@@H](O)C1	772 µM	–
O=C(CCc1ccccc1)N1C[C@@H](O)[C@H](O)C1	–	IC50 [1]: Not Active
Cn1cc(C(=O)N2C[C@H](O)[C@@H](O)C2)c2ccccc21	594 µM	–
O=C(/C=C/c1ccc(O)cc1)Nc1ccc(CCC(=O)N2C[C@H](O)[C@@H](O)C2)cc1	–	IC50 [1]: Not Active
O=S(=O)(c1ccc(C(F)(F)F)cc1)N1C[C@H](O)[C@@H](O)C1	497 µM	–
O=C(CCc1ccc(C(F)(F)F)cc1)N1C[C@@H](O)[C@H](O)C1	856 µM	–
C[C@H]1O[C@H](O[C@H]2[C@H](O)[C@@H](O)[C@@H](O[C@H]3[C@H](O)[C@@H](O)C(O)O[C@@H]3CO)O[C@@H]2CO)[C@H](O)[C@@H](O)[C@@H]1N[C@H]1C=C(CO)[C@@H](O)[C@H](O)[C@H]1O (stereo not given in full) [ACARBOSE]	360 µM	–
O=C(/C=C/c1ccc(O)cc1)N1C[C@@H](O)[C@H](O)C1	546 µM	–
O=C(CCc1ccccc1C(F)(F)F)N1C[C@@H](O)[C@H](O)C1	272 µM	–
O=C(CCc1ccc(C(F)(F)F)cc1)N1C[C@H](O)[C@@H](O)C1	863 µM	–
O=C(CCc1ccc(NS(=O)(=O)c2ccc(F)cc2)cc1)N1C[C@@H](O)[C@H](O)C1	–	IC50 [1]: Active
O=C(CCc1ccccc1)N1C[C@H](O)[C@@H](O)C1	–	IC50 [1]: Not Active
O=C(/C=C/c1ccc(C(F)(F)F)cc1)Nc1ccc(CCC(=O)N2C[C@@H](O)[C@H](O)C2)cc1	–	IC50 [1]: Not Active
O=C(/C=C/c1ccsc1)N1C[C@@H](O)[C@H](O)C1	–	IC50 [1]: Not Active
O=C(/C=C/c1ccccc1C(F)(F)F)N1C[C@@H](O)[C@H](O)C1	–	IC50 [1]: Active
O=C(/C=C/c1ccc(O)cc1)Nc1ccc(CCC(=O)N2C[C@@H](O)[C@H](O)C2)cc1	–	IC50 [1]: Not Active
O=C(/C=C/c1ccccc1)N1C[C@H](O)[C@@H](O)C1	747 µM	–
CO[C@H]1C=CC(=O)N1C(=O)CCc1ccccc1	–	IC50 [5]: 430 µM
O=C(CCc1ccncc1)N1C[C@@H](O)[C@H](O)C1	966 µM	–
O=S(=O)(c1ccc(OC(F)(F)F)cc1)N1C[C@H](O)[C@@H](O)C1	228 µM	–
O=C(CCc1ccc(NS(=O)(=O)c2ccc(F)cc2)cc1)N1C[C@H](O)[C@@H](O)C1	–	IC50 [1]: Active
O=C(CCc1ccc(F)cc1)Nc1ccc(CCC(=O)N2C[C@H](O)[C@@H](O)C2)cc1	–	IC50 [1]: Not Active
Cn1cc(C(=O)N2C[C@@H](O)[C@H](O)C2)c2ccccc21	531 µM	–
O=C(/C=C/c1ccsc1)N1C[C@H](O)[C@@H](O)C1	–	IC50 [1]: Not Active
OCCN1C[C@H](O)[C@@H](O)[C@H](O)[C@H]1CO [MIGLITOL]	462 µM	–
O=C(CCc1ccc(F)cc1)Nc1ccc(CCC(=O)N2C[C@@H](O)[C@H](O)C2)cc1	–	IC50 [1]: Not Active

SMILES	IC50 ([1]; read-out: IC50)	further results
O=C(/C=C/c1ccc(C(F)(F)F)cc1)N1C[C@H](O)[C@@H](O)C1	652 µM	–
O=C(CCc1ccc(N(S(=O)(=O)c2ccc(C(F)(F)F)cc2)S(=O)(=O)c2ccc(C(F)(F)F)cc2)cc1)N1C[C@H](O)[C@@H](O)C1	114 µM	–
O=C(CCc1ccc([N+](=O)[O-])cc1)N1C[C@@H](O)[C@H](O)C1	–	IC50 [1]: Not Active
O=C(/C=C/c1ccc(C(F)(F)F)cc1)N1C[C@@H](O)[C@H](O)C1	605 µM	–
O=C(CCc1ccccc1F)N1C[C@H](O)[C@@H](O)C1	–	IC50 [1]: Not Active
O=C(CCc1ccc(C(F)(F)F)cc1)N1C[C@@H](O)[C@@H](O)C1	886 µM	–
O=C(CCc1ccc(C(F)(F)F)cc1)Nc1ccc(CCC(=O)N2C[C@@H](O)[C@H](O)C2)cc1	–	IC50 [1]: Not Active
O=C1C=C[C@H](O)N1C(=O)CCc1ccccc1	–	IC50 [5]: 7820 µM
O=C(/C=C/c1ccc(C(F)(F)F)cc1)Nc1ccc(CCC(=O)N2C[C@H](O)[C@@H](O)C2)cc1	–	IC50 [1]: Not Active
Cn1c(C(=O)N2C[C@@H](O)[C@H](O)C2)cc2ccccc21	539 µM	–
O=C(CCc1ccccc1F)N1C[C@@H](O)[C@H](O)C1	–	IC50 [1]: Not Active
O=S(=O)(c1ccc(O)cc1)N1C[C@@H](O)[C@H](O)C1	607 µM	–
CC(C)(C)OC(=O)Nc1ccc(CCC(=O)N2C[C@@H](O)[C@H](O)C2)cc1	–	IC50 [1]: Not Active
O=C(CCc1ccc(NS(=O)(=O)c2ccc(C(F)(F)F)cc2)cc1)N1C[C@@H](O)[C@H](O)C1	429 µM	–
O=S(=O)(c1ccc(OC(F)(F)F)cc1)N1C[C@@H](O)[C@H](O)C1	–	IC50 [1]: Active
CC(C)(C)OC(=O)Nc1ccc(CCC(=O)N2C[C@H](O)[C@@H](O)C2)cc1	–	IC50 [1]: Not Active
O=C(CCc1ccncc1)N1C[C@H](O)[C@@H](O)C1	943 µM	–
Cn1c(C(=O)N2C[C@H](O)[C@@H](O)C2)cc2ccccc21	556 µM	–
O=C(/C=C/c1ccccc1F)N1C[C@@H](O)[C@H](O)C1	862 µM	–
O=C(/C=C/c1ccccc1F)N1C[C@H](O)[C@@H](O)C1	837 µM	–
O=C(/C=C/c1ccccc1C(F)(F)F)N1C[C@H](O)[C@@H](O)C1	656 µM	–
O=C(CCc1ccccc1C(F)(F)F)N1C[C@H](O)[C@@H](O)C1	124 µM	–
O=C(/C=C/c1ccccc1)N1C[C@@H](O)[C@H](O)C1	822 µM	–
O=S(=O)(c1ccc(O)cc1)N1C[C@H](O)[C@@H](O)C1	453 µM	–
O=C(CCc1ccc(NS(=O)(=O)c2ccc(C(F)(F)F)cc2)cc1)N1C[C@H](O)[C@@H](O)C1	463 µM	–
O=C(/C=C/c1ccc(O)cc1)N1C[C@H](O)[C@@H](O)C1	506 µM	–
OCC(CO)N[C@H]1C[C@](O)(CO)[C@@H](O)[C@H](O)[C@H]1O [VOGLIBOSE]	325 µM	–

Second part, led by results:

IC50 ([1]; read-out: IC50)	SMILES	further results
302 µM	Nc1ccc(CCC(=O)N2C[C@@H](O)[C@@H](O)C2)cc1	–
602 µM	O=C(CCc1ccc(O)cc1)N1C[C@H](O)[C@@H](O)C1	–
185 µM	Nc1ccc(CCC(=O)N2C[C@H](O)[C@@H](O)C2)cc1	–
111 µM	O=C(/C=C/c1ccc(F)cc1)Nc1ccc(CCC(=O)N2C[C@@H](O)[C@H](O)C2)cc1	–
104 µM	O=C(CCc1ccc(O)cc1)Nc1ccc(CCC(=O)N2C[C@@H](O)[C@H](O)C2)cc1	Ratio IC50 (Homo sapiens [2]): 3 to 4; Ratio IC50 (Homo sapiens [3]): 3 to 4; Ratio IC50 (Homo sapiens [4]): 3 to 4
262 µM	Nc1ccc(CCC(=O)Nc2ccc(CCC(=O)N3C[C@H](O)[C@@H](O)C3)cc2)cc1	–
723 µM	O=C(CCc1ccsc1)N1C[C@@H](O)[C@H](O)C1	–
474 µM	O=C(Nc1ccc(CCC(=O)N2C[C@@H](O)[C@H](O)C2)cc1)c1ccsc1	–
108 µM	Nc1ccc(CCC(=O)N2C[C@@H](O)[C@H](O)C2)cc1	Ratio IC50 (Homo sapiens [2]): 3 to 4; Ratio IC50 (Homo sapiens [3]): 3 to 4; Ratio IC50 (Homo sapiens [4]): 3 to 4
200 µM	O=C(/C=C/c1ccc(F)cc1)Nc1ccc(CCC(=O)N2C[C@H](O)[C@@H](O)C2)cc1	–
495 µM	O=C(Nc1ccc(CCC(=O)N2C[C@H](O)[C@@H](O)C2)cc1)c1ccsc1	–
98.5 µM	O=C(CCc1ccc(O)cc1)Nc1ccc(CCC(=O)N2C[C@H](O)[C@@H](O)C2)cc1	Ratio IC50 (Homo sapiens [2]): 3 to 4; Ratio IC50 (Homo sapiens [3]): 3 to 4; Ratio IC50 (Homo sapiens [4]): 3 to 4
259 µM	Nc1ccc(CCC(=O)Nc2ccc(CCC(=O)N3C[C@@H](O)[C@H](O)C3)cc2)cc1	–
796 µM	O=C(CCc1ccsc1)N1C[C@H](O)[C@@H](O)C1	–
556 µM	CC(C)(C)OC(=O)Nc1ccc(CCC(=O)N2C[C@@H](O)[C@@H](O)C2)cc1	–
657 µM	O=C(CCc1ccc(O)cc1)N1C[C@@H](O)[C@H](O)C1	–
